In PMC5651866, “Halogenated Chrysins Inhibit Dengue and Zika Virus Infectivity” (Scientific Reports, 2017):

What was measured:
DENV3 (16562) = experiment: Antiviral efficacy (EC50) in virus infected LLC/MK2 cells, plaque assay; assay type: cell-based, Dengue virus
Procedure: Compound at various concentrations were added to virus infected LLC/MK2 cells and viral titers were accessed by plaque titration of supernatants as previously described.
LLC/MK2 cells were seeded at 5 × 10^4 cells into each well of 24-well plate and incubated overnight at 37 °C under 5% CO2. Cells were infected with DENV2 at the multiplicity of infection (M.O.I.) of 0.1, unless indicated otherwise, for 1 h with gentle rocking every 15 min. Cells were washed with phosphate buffer saline (PBS) and incubated with 1 ml of MEM medium supplemented with 1% FBS as previously described. The compounds were prepared in dimethylsulfoxide (DMSO) at the indicated concentrations before addition to viral infected cells. Supernatants were collected after 5 day incubation and analyzed by plaque titration[9].
Compounds were prepared in DMSO at 8–12 different concentrations and added to virus infected cells as previously described. Supernatants were collected and the EC50 values were calculated from nonlinear regression analysis.

DENV2 = experiment: Time-of-drug addition study (TOA) in DENV2 infected LLC/MK2 cells; assay type: cell-based, Dengue virus; settings: 10 μM; for decrease of DENV2 plaque titer from DMSO-treated baseline: supernatants
Procedure: To access the stage of the viral life cycle affected by FV13, we performed a time-of-addition assay. Briefly, FV13 (10 μM) was added to DENV2 infected LLC/MK2 cells at various time points as described in Methods section. DMSO was added in parallel as a control treatment. Supernatants were collected for plaque titration and cell lysates were collected for RT-qPCR analysis. […] If the drug was added at 12 hpi or later, only 1-log decrease was observed (Fig. 4A,B). […] The first molecular target could interact with FV13 earlier than 2 hpi and its effect was still visible until 8–10 hpi. The other target could locate at late post-replication steps such as assembly, maturation, or release because a 1-log discrepancy between plaque and RT-qPCR titers indicated genome replication was unaffected. Further investigations will reveal insights into the actual target of this compound.
(§1) After supernatant collection, the remaining cells in experimental plates were extracted for viral RNAs using TRIzol reagent (Invitrogen, California, USA) according to the manufacturer’s protocol. The samples were loaded into the Direct-zol™ RNA MiniPrep (Zymo research, California, USA) and quantified by Nanodrop spectrophotometry (Eppendorf, New York, USA). The RT-qPCR was performed with a Step-OnePlus Real-Time PCR System (Applied Biosystems, California, USA.) with 1 × Power SYBRGreen PCR Master Mix, 400 nM each of capsid primers[40] or 250 nM of NS1 primers[41] and 0.1 µg of total RNA. The reactions were then cycled at 48 °C 30 min and 95 °C 10 min, followed by 45 cycles of 95 °C for 20 s (denaturation), 55 °C for 30 s (annealing), 72 °C for 30 s (extension). Each sample was analyzed in triplicated and results were confirmed by two independent experiments.
LLC/MK2 cells were seeded in 24-well plate and incubated as previously described. Cells were then infected with DENV2 (M.O.I. of 0.1). FV13 (10 µM) was added at various time points, early time points (−1, 0, 2, 4, 6, 8, 10, and 12 hpi) and late time points (12, 14, 16, 20, and 24 hpi) and the plates were incubated for 5 days. Supernatants were collected to determine the viral titer by plaque titration assay and the cells were collected to determine viral RNA content by RT-qPCR. Results were confirmed by three independent experiments in which each time point was tested in duplicate.

[1] = test system: DENV2 infected C6/36 cells; experiment: Fusion inhibition study in DENV2 infected C6/36 cells; assay type: cell-based, Dengue virus; settings: 10 and 25 µM; M.O.I. of 0.02; in words
Procedure: We further explored whether the compound would block the viral infectivity by neutralization. We set up the attachment inhibition assay by incubating DENV2 with LLC/MK2 cells at 4 °C for 1 h and FV13 was added before adsorption (pre-attachment), simultaneous with adsorption (co-attachment), and after adsorption (post-attachment) (Fig. 5A). DMSO was used as a mock treatment and added in parallel to FV13 to the experiment. Cells were incubated until cytopathic effects appeared under microscope (Fig. 5B). Supernatants and cells were then analyzed by plaque titration (Fig. 5C) and RT-qPCR (Fig. 5D), respectively. […] Therefore, the major targets of FV13 inhibition appear to function after attachment, possibly at the fusion or translation steps. […] (Supplementary 1). Therefore, fusion was unlikely the major target of FV13. We concluded that one of the major targets of FV13 functions early after infection and attachment and fusion are not critically affected. Flavivirus translation initiates within 1 to 5 hpi[26].
The assay protocol was adapted from Ichiyama et al., 2013 and Poh et al., 20091,2. C6/36 cells were seeded at 2x10^5 cells per well in 24-well plate and incubated overnight. Cells were infected with DENV2 (M.O.I. of 0.02) at 28 °C for 1 h with gentle rocking every 15 min. […] The cells were closely monitored under microscope. […]

[2] = test system: BHK-21/DENV2 replicon cells; experiment: Replicon inhibition assay, RT-qPCR of replicon RNA; assay type: cell-based; settings: Dengue virus, DENV2, BHK-21, 72 h, read-out: inhibition of DENV2 replicon replication
Procedure: Next, we studied FV13 inhibition in a DENV2 replicon replication system to investigate whether translation and replication could be implicated as drug targets. BHK-21/DENV2 replicon cells[28] were treated with 5 and 10 µM FV13 and incubated for 72 h before measuring replication efficiency by quantifying replicon RNA. Ribavirin, a known dengue virus replication inhibitor[29], was used as a positive control.
as §1
BHK-21 cells expressing a DENV2 replicon (BHK-21/DENV2) were maintained in minimal essential medium (MEM) supplemented with 10% fetal bovine serum (FBS), and 0.3 mg/ml G418 (Bio Basic Canada, Ontario, Canada). The protocol was adapted from Boonyasuppayakorn et al., 2014 [28]. Briefly, cells (5 × 10^4/well) were seeded into 24-well plates and were incubated for 1 day at 37 °C in a humidified CO2 chamber followed by addition of the compounds in 1% DMSO at final concentrations of 5 µM and 10 µM. DMSO (1%) alone was used as the no-inhibitor control (0% inhibition) and the reference compound was ribavirin (TargetMol, Massachusetts, USA) at a final concentration of 5 µM or 10 µM. Cells were incubated at 37 °C for 72 h and lysed to quantify DENV2 replicons by RT-qPCR. Data were reported as percent inhibition compared with ribavirin, as a reference compound and DMSO, 0% inhibition. Results were confirmed by three independent experiments.

SMILES: O=c1cc(-c2ccccc2)oc2c(Br)c(O)c(Br)c(O)c12 [FV13, 6,8-dibromo-5,7-dihydroxyflavone]
- S.I. Selectivity index (CC50/EC50) (DENV3 (16562); DENV3 (16562), CC50 in LLC/MK2): 19.22
- EC50 (DENV3 (16562); Dengue virus, DENV3, LLC-MK2): 2.32 ± 1.46 µM
- decrease of DENV2 plaque titer from DMSO-treated baseline (DENV2; drug added at 12 hpi or later): 1 log
- decrease of DENV2 plaque titer from DMSO-treated baseline (DENV2; drug added between 2–10 hpi): 2 log
- intracellular viral RNA versus DMSO-treated samples (DENV2; drug addition at 12–24 hpi, RT-qPCR, in words): no titer difference
- decrease of intracellular viral RNA (DENV2; drug addition between 2–8 hpi, RT-qPCR): 1 log
- fusion inhibition (number of fused cells or syncytial phenomenon) [1]: no difference in the number of fused cells or syncytial phenomenon
- inhibition at 5 µM [2]: 83.4 ± 2.04%
- inhibition at 10 µM [2]: 82.7 ± 4.01%
